test system: HBV rcDNA in HepDE19 cells; assay: HepDE19 assay with bDNA quantitation of HBV rcDNA; assay type: cell-based, hepatitis B virus; conditions: HepDE19 assay, inhibition of rcDNA formation, bDNA quantitation; read-out: DE-19bDNA EC50

Compound	EC50 [nM]
CN(C(=O)c1cc2ccccc2[nH]1)C1CNCc2[nH]c(=O)c3cc(F)ccc3c21 (single isomer, unassigned) [Compound 78, N-(8-Fluoro-6-oxo-1,2,3,4,5,6-hexahydrobenzo[c][1,7]naphthyridin-1-yl)-N-methyl-1H-indole-2-carboxamide]	8100
CN(C(=O)c1cc2ccccc2[nH]1)C1CN(CCO)Cc2[nH]c(=O)c3cc(F)ccc3c21 (single isomer, unassigned) [Compound 80, N-(8-Fluoro-3-(2-hydroxyethyl)-6-oxo-1,2,3,4,5,6-hexahydrobenzo[c][1,7]naphthyridin-1-yl)-N-methyl-1H-indole-2-carboxamide]	6300
CC(=O)N1Cc2[nH]c(=O)c3cc(F)c(F)cc3c2C(N(C)C(=O)c2cc3ccccc3[nH]2)C1 (single isomer, unassigned) [Compound 81, N-(3-Acetyl-8,9-difluoro-6-oxo-1,2,3,4,5,6-hexahydrobenzo[c][1,7]naphthyridin-1-yl)-N-methyl-1H-indole-2-carboxamide]	14000
CC(=O)N1Cc2[nH]c(=O)c3cc(F)c(F)cc3c2C(N(C)C(=O)c2cc3ccccc3[nH]2)C1 (single isomer, unassigned) [Compound 82, N-(3-Acetyl-8,9-difluoro-6-oxo-1,2,3,4,5,6-hexahydrobenzo[c][1,7]naphthyridin-1-yl)-N-methyl-1H-indole-2-carboxamide]	3500
CN(C(=O)c1cc2ccccc2[nH]1)C1CN(CCO)Cc2[nH]c(=O)c3cc(F)c(F)cc3c21 (single isomer, unassigned) [Compound 89, N-(8,9-Difluoro-3-(2-hydroxyethyl)-6-oxo-1,2,3,4,5,6-hexahydrobenzo[c][1,7]naphthyridin-1-yl)-N-methyl-1H-indole-2-carboxamide]	7900
CN(C(=O)c1cc2ccccc2[nH]1)C1CN(CCO)Cc2[nH]c(=O)c3cc(F)c(F)cc3c21 (single isomer, unassigned) [Compound 90, N-(8,9-Difluoro-3-(2-hydroxyethyl)-6-oxo-1,2,3,4,5,6-hexahydrobenzo[c][1,7]naphthyridin-1-yl)-N-methyl-1H-indole-2-carboxamide]	500
CN(C(=O)c1cc2cc(F)ccc2[nH]1)C1CNCc2[nH]c(=O)c3cc(F)c(F)cc3c21 (single isomer, unassigned) [Compound 101, N-(8,9-Difluoro-6-oxo-1,2,3,4,5,6-hexahydrobenzo[c][1,7]naphthyridin-1-yl)-5-fluoro-N-methyl-1H-indole-2-carboxamide]	10
CN(C(=O)c1cc2cc(F)ccc2[nH]1)C1CNCc2[nH]c(=O)c3cc(F)c(F)cc3c21 (single isomer, unassigned) [Compound 102, N-(8,9-Difluoro-6-oxo-1,2,3,4,5,6-hexahydrobenzo[c][1,7]naphthyridin-1-yl)-5-fluoro-N-methyl-1H-indole-2-carboxamide]	1800
CN(C(=O)c1cc2c(F)cccn2c1)C1CSCc2[nH]c(=O)c3cc(F)c(F)cc3c21 (single isomer, unassigned) [Compound 103, N-(8,9-Difluoro-6-oxo-1,4,5,6-tetrahydro-2H-thiopyrano[3,4-c]isoquinolin-1-yl)-8-fluoro-N-methylindolizine-2-carboxamide]	2500
CN(C(=O)c1cc2c(F)cccn2c1)C1CSCc2[nH]c(=O)c3cc(F)c(F)cc3c21 (single isomer, unassigned) [Compound 104, N-(8,9-Difluoro-6-oxo-1,4,5,6-tetrahydro-2H-thiopyrano[3,4-c]isoquinolin-1-yl)-8-fluoro-N-methylindolizine-2-carboxamide]	10
CN(C(=O)c1cc2c(F)cccc2[nH]1)C1CNCc2[nH]c(=O)c3cc(F)c(F)cc3c21 (single isomer, unassigned) [Compound 105, N-(8,9-Difluoro-6-oxo-1,2,3,4,5,6-hexahydrobenzo[c][1,7]naphthyridin-1-yl)-4-fluoro-N-methyl-1H-indole-2-carboxamide]	10
CN(C(=O)c1cc2c(F)cccc2[nH]1)C1CNCc2[nH]c(=O)c3cc(F)c(F)cc3c21 (single isomer, unassigned) [Compound 106, N-(8,9-Difluoro-6-oxo-1,2,3,4,5,6-hexahydrobenzo[c][1,7]naphthyridin-1-yl)-4-fluoro-N-methyl-1H-indole-2-carboxamide]	100
CN(C(=O)c1cc2ccc(F)cc2[nH]1)C1CNCc2[nH]c(=O)c3cc(F)c(F)cc3c21 (single isomer, unassigned) [Compound 107, N-(8,9-Difluoro-6-oxo-1,2,3,4,5,6-hexahydrobenzo[c][1,7]naphthyridin-1-yl)-6-fluoro-N-methyl-1H-indole-2-carboxamide]	20
CN(C(=O)c1cc2ccc(F)cc2[nH]1)C1CNCc2[nH]c(=O)c3cc(F)c(F)cc3c21 (single isomer, unassigned) [Compound 108, N-(8,9-Difluoro-6-oxo-1,2,3,4,5,6-hexahydrobenzo[c][1,7]naphthyridin-1-yl)-6-fluoro-N-methyl-1H-indole-2-carboxamide]	1600
CN(C(=O)c1cc2cccc(F)c2[nH]1)C1CNCc2[nH]c(=O)c3cc(F)c(F)cc3c21 (single isomer, unassigned) [Compound 113, N-(8,9-Difluoro-6-oxo-1,2,3,4,5,6-hexahydrobenzo[c][1,7]naphthyridin-1-yl)-7-fluoro-N-methyl-1H-indole-2-carboxamide]	430
CN(C(=O)c1cc2cccc(F)c2[nH]1)C1CNCc2[nH]c(=O)c3cc(F)c(F)cc3c21 (single isomer, unassigned) [Compound 114, N-(8,9-Difluoro-6-oxo-1,2,3,4,5,6-hexahydrobenzo[c][1,7]naphthyridin-1-yl)-7-fluoro-N-methyl-1H-indole-2-carboxamide]	20
CN(C(=O)c1cc2cc(F)c(F)cc2[nH]1)C1CNCc2[nH]c(=O)c3cc(F)c(F)cc3c21 (single isomer, unassigned) [Compound 115, N-(8,9-Difluoro-6-oxo-1,2,3,4,5,6-hexahydrobenzo[c][1,7]naphthyridin-1-yl)-5,6-difluoro-N-methyl-1H-indole-2-carboxamide]	20
CN(C(=O)c1cc2cc(F)c(F)cc2[nH]1)C1CNCc2[nH]c(=O)c3cc(F)c(F)cc3c21 (single isomer, unassigned) [Compound 116, N-(8,9-Difluoro-6-oxo-1,2,3,4,5,6-hexahydrobenzo[c][1,7]naphthyridin-1-yl)-5,6-difluoro-N-methyl-1H-indole-2-carboxamide]	1300
CN(C(=O)c1cc2c(F)cc(F)cc2[nH]1)C1CNCc2[nH]c(=O)c3cc(F)c(F)cc3c21 (single isomer, unassigned) [Compound 117, N-(8,9-Difluoro-6-oxo-1,2,3,4,5,6-hexahydrobenzo[c][1,7]naphthyridin-1-yl)-4,6-difluoro-N-methyl-1H-indole-2-carboxamide]	20

same assay, conditions: Hepatitis B virus, HepDE19, HepDE19 assay, inhibition of rcDNA formation, bDNA quantitation; read-out: DE-19bDNA EC50

Compound	EC50 [nM]
CN(C(=O)c1cc2ccccc2[nH]1)C1CN(CCO)Cc2[nH]c(=O)c3cc(F)ccc3c21 (single isomer, unassigned) [Compound 79, N-(8-Fluoro-3-(2-hydroxyethyl)-6-oxo-1,2,3,4,5,6-hexahydrobenzo[c][1,7]naphthyridin-1-yl)-N-methyl-1H-indole-2-carboxamide]	10000

Source: patent US20240228504A1, “SUBSTITUTED TRICYCLIC AMIDES, ANALOGUES THEREOF, AND METHODS USING SAME” (Arbutus Biopharma Corporation, priority 2020, published 2024)
